# Reference: paper PMC11240878, “Synthesis, enzyme inhibition assay, and molecular modeling study of novel pyrazolines linked to 4-methylsulfonylphenyl scaffold: antitumor activity and cell cycle analysis” (RSC Advances, 2024)
# Tests used:
# 59 cancer cell lines = test: NCI 59 cancer cell line panel, single dose; assay type: cell-based, human; conditions: 10 μM single dose; for MG% (mean growth percent): 59 cell lines; for Mean GI% Breast cancer: breast cancer subpanel; for Mean GI% Leukemia: leukemia subpanel
# SR = test: NCI single-dose GI%, leukemia; assay type: cell-based, human; conditions: 10.0 μM in one dose
# EKVX = test: NCI single-dose GI%, NSC lung; assay type: cell-based, human; conditions: 10.0 μM in one dose
# HOP-62 = test: NCI single-dose GI%, NSC lung; assay type: cell-based, human; conditions: HOP-62, NSC lung; 10.0 μM in one dose
# NCI-H23 = test: NCI single-dose GI%, NSC lung; assay type: cell-based, human; conditions: 10.0 μM in one dose
# NCI-H322M = test: NCI single-dose GI%, NSC lung; assay type: cell-based, human; conditions: 10.0 μM in one dose
# NCI-H460 = test: NCI single-dose GI%, NSC lung; assay type: cell-based, human; conditions: 10.0 μM in one dose
# NCI-H522 = test: NCI single-dose GI%, NSC lung; assay type: cell-based, human; conditions: 10.0 μM in one dose
# HCT-116 = test: NCI single-dose GI%, colon; assay type: cell-based, human; conditions: HCT-116, colon; 10.0 μM in one dose
# HCT-15 = test: NCI single-dose GI%, colon; assay type: cell-based, human; conditions: HCT-15, colon; 10.0 μM in one dose
# KM12 = test: NCI single-dose GI%, colon; assay type: cell-based, human; conditions: 10.0 μM in one dose
# SW-620 = test: NCI single-dose GI%, colon; assay type: cell-based, human; conditions: SW-620, colon; 10.0 μM in one dose
# SF-268 = test: NCI single-dose GI%, CNS; assay type: cell-based, human; conditions: SF-268, CNS; 10.0 μM in one dose
# SF-295 = test: NCI single-dose GI%, CNS; assay type: cell-based, human; conditions: SF-295, CNS; 10.0 μM in one dose
# SNB-19 = test: NCI single-dose GI%, CNS; assay type: cell-based, human; conditions: SNB-19, CNS; 10.0 μM in one dose
# SNB-75 = test: NCI single-dose GI%, CNS; assay type: cell-based, human; conditions: SNB-75, CNS; 10.0 μM in one dose
# LOX IMVI = test: NCI single-dose GI%, melanoma; assay type: cell-based, human; conditions: 10.0 μM in one dose
# MALME-3M = test: NCI single-dose GI%, melanoma; assay type: cell-based, human; conditions: 10.0 μM in one dose
# M14 = test: NCI single-dose GI%, melanoma; assay type: cell-based, human; conditions: 10.0 μM in one dose
# SK-MEL-2 = test: NCI single-dose GI%, melanoma; assay type: cell-based, human; conditions: SK-MEL-2, melanoma; 10.0 μM in one dose
# SK-MEL-28 = test: NCI single-dose GI%, melanoma; assay type: cell-based, human; conditions: SK-MEL-28, melanoma; 10.0 μM in one dose
# SK-MEL-5 = test: NCI single-dose GI%, melanoma; assay type: cell-based, human; conditions: SK-MEL-5, melanoma; 10.0 μM in one dose
# UACC-62 = test: NCI single-dose GI%, melanoma; assay type: cell-based, human; conditions: UACC-62, melanoma; 10.0 μM in one dose
# IGROV1 = test: NCI single-dose GI%, ovarian; assay type: cell-based, human; conditions: 10.0 μM in one dose
# OVCAR-3 = test: NCI single-dose GI%, ovarian; assay type: cell-based, human; conditions: OVCAR-3, ovarian; 10.0 μM in one dose
# OVCAR-4 = test: NCI single-dose GI%, ovarian; assay type: cell-based, human; conditions: OVCAR-4, ovarian; 10.0 μM in one dose
# NCI/ADR-RES = test: NCI single-dose GI%, ovarian; assay type: cell-based, human; conditions: 10.0 μM in one dose
# 786-0 = test: NCI single-dose GI%, renal; assay type: cell-based, human; conditions: 786-0, renal; 10.0 μM in one dose
# A498 = test: NCI single-dose GI%, renal; assay type: cell-based, human; conditions: 10.0 μM in one dose
# ACHN = test: NCI single-dose GI%, renal; assay type: cell-based, human; conditions: 10.0 μM in one dose
# CAKI-1 = test: NCI single-dose GI%, renal; assay type: cell-based, human; conditions: CAKI-1, renal; 10.0 μM in one dose
# UO-31 = test: NCI single-dose GI%, renal; assay type: cell-based, human; conditions: UO-31, renal; 10.0 μM in one dose
# MDA-MB-231/ATCC = test: NCI single-dose GI%, breast; assay type: cell-based, human; conditions: 10.0 μM in one dose
# MDA-MB-468 = test: NCI single-dose GI%, breast; assay type: cell-based, human; conditions: MDA-MB-468, breast; 10.0 μM in one dose
# Bax in MDA-MB-231 cells = test: Apoptotic markers assay, Bax; assay type: cell-based, human; conditions: at IC50 concentration, vs untreated control
# Protocol: The levels of Bax (apoptosis promoter), Bcl-2 (apoptosis inhibitor), and apoptosis coordination enzymes (caspase-3 and caspase-9) were measured.[78–80]
# Apoptotic markers experiment was performed according to reported procedure using MDA-MB-231 cancer cell line.[78–80]
# HER2 = HER2 (Homo sapiens, UniProt P04626); test: HER2 tyrosine kinase inhibition assay
# Chain of HER2 (P04626 23-1255): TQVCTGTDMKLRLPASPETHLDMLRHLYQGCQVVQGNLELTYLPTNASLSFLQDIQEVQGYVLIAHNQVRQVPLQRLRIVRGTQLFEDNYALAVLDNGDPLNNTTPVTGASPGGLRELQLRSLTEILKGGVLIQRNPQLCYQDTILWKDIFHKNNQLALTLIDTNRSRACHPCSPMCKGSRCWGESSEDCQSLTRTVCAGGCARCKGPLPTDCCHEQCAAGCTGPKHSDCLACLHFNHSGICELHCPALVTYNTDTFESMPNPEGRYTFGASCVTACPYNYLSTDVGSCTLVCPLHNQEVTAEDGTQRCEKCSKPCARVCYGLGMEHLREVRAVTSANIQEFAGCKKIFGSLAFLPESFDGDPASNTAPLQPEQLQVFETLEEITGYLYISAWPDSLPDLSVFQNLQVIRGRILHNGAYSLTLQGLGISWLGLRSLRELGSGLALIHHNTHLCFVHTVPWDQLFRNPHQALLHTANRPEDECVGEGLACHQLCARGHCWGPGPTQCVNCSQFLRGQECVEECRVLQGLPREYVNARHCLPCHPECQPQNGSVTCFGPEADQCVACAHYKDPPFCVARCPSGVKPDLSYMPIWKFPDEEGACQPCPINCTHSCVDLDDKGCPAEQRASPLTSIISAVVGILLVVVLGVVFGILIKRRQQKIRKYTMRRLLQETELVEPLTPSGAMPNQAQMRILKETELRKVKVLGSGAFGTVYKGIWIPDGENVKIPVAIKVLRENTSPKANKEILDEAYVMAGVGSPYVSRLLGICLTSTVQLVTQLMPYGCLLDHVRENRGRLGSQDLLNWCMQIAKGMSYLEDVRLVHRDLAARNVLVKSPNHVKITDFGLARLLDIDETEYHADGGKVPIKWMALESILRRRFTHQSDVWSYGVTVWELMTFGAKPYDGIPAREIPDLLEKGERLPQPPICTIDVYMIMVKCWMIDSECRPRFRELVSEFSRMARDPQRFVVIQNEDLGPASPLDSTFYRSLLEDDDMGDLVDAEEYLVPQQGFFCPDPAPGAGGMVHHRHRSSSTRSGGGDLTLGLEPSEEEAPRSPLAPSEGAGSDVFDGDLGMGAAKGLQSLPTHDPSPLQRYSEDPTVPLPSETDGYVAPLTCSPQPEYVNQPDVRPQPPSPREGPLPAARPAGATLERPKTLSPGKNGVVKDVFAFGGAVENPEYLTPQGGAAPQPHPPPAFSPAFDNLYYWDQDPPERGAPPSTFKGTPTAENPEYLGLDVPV
# CCRF-CEM = test: NCI single-dose GI%, leukemia; assay type: cell-based, human; conditions: 10.0 μM in one dose
# RPMI-8226 = test: NCI single-dose GI%, leukemia; assay type: cell-based, human; conditions: RPMI-8226, leukemia; 10.0 μM in one dose
# OVCAR-8 = test: NCI single-dose GI%, ovarian; assay type: cell-based, human; conditions: OVCAR-8, ovarian; 10.0 μM in one dose
# RXF 393 = test: NCI single-dose GI%, renal; assay type: cell-based, human; conditions: RXF 393, renal; 10.0 μM in one dose
# DU-145 = test: NCI single-dose GI%, prostate; assay type: cell-based, human; conditions: DU-145, prostate; 10.0 μM in one dose
# [1] = system: breast adenocarcinoma MCF-7; conditions: human, 48 h
smiles,measurement,setting,value
"Cc1ccc(C2=NN(C(=O)c3ccc(S(C)(=O)=O)cc3)C(c3ccc(C)cc3)C2)cc1 (centres unmarked) [Compound 18g, (3,5-Bis(4-tolyl)-4,5-dihydro-1H-pyrazol-1-yl)(4-(methylsulfonyl)phenyl)methanone]",PCE (positive cytotoxic effect: ratio of cell lines with growth inhibition >10% to total cell lines),59 cancer cell lines,48/59
same,MG% (mean growth percent),59 cancer cell lines,72.98%
same,Mean GI% Breast cancer,59 cancer cell lines,31%
same,Mean GI% Leukemia,59 cancer cell lines,63%
same,GI%,SR,50%
same,GI%,EKVX,25%
same,GI%,HOP-62,26%
same,GI%,NCI-H23,12%
same,GI%,NCI-H322M,12%
same,GI%,NCI-H460,17%
same,GI%,NCI-H522,73%
same,GI%,HCT-116,37%
same,GI%,HCT-15,45%
same,GI%,KM12,37%
same,GI%,SW-620,25%
same,GI%,SF-268,11%
same,GI%,SF-295,30%
same,GI%,SNB-19,13%
same,GI%,SNB-75,30%
same,GI%,LOX IMVI,16%
same,GI%,MALME-3M,14%
same,GI%,M14,32%
same,GI%,SK-MEL-2,33%
same,GI%,SK-MEL-28,23%
same,GI%,SK-MEL-5,38%
same,GI%,UACC-62,36%
same,GI%,IGROV1,23%
same,GI%,OVCAR-3,24%
same,GI%,OVCAR-4,22%
same,GI%,NCI/ADR-RES,38%
same,GI%,786-0,22%
same,GI%,A498,16%
same,GI%,ACHN,12%
same,GI%,CAKI-1,43%
same,GI%,UO-31,26%
same,GI%,MDA-MB-231/ATCC,14%
same,GI%,MDA-MB-468,45%
same,Bax gene expression (fold change),Bax in MDA-MB-231 cells,3.054 fold change
same,IC50,HER2,0.496 ± 0.016 µM
"CS(=O)(=O)c1ccc(C(=O)N2N=C(c3ccccc3)CC2c2ccccc2O)cc1 (centres unmarked) [Compound 18h, (5-(2-Hydroxyphenyl)-3-phenyl-4,5-dihydro-1H-pyrazol-1-yl)(4-(methylsulfonyl)phenyl)methanone]",PCE (positive cytotoxic effect: ratio of cell lines with growth inhibition >10% to total cell lines),59 cancer cell lines,51/59
same,MG% (mean growth percent),59 cancer cell lines,72.20%
same,Mean GI% Breast cancer,59 cancer cell lines,24%
same,Mean GI% Leukemia,59 cancer cell lines,46%
same,GI%,CCRF-CEM,41%
same,GI%,RPMI-8226,16%
same,GI%,SR,30%
same,GI%,EKVX,41%
same,GI%,HOP-62,47%
same,GI%,NCI-H23,12%
same,GI%,NCI-H322M,48%
same,GI%,NCI-H460,54%
same,GI%,NCI-H522,55%
same,GI%,HCT-116,35%
same,GI%,HCT-15,56%
same,GI%,KM12,21%
same,GI%,SF-268,39%
same,GI%,SF-295,23%
same,GI%,SNB-19,17%
same,GI%,LOX IMVI,34%
same,GI%,MALME-3M,21%
same,GI%,M14,29%
same,GI%,SK-MEL-2,28%
same,GI%,SK-MEL-28,11%
same,GI%,SK-MEL-5,38%
same,GI%,UACC-62,12%
same,GI%,IGROV1,28%
same,GI%,OVCAR-3,35%
same,GI%,OVCAR-4,22%
same,GI%,OVCAR-8,41%
same,GI%,NCI/ADR-RES,22%
same,GI%,786-0,33%
same,GI%,ACHN,25%
same,GI%,CAKI-1,33%
same,GI%,RXF 393,29%
same,GI%,UO-31,47%
same,GI%,DU-145,19%
same,GI%,MDA-MB-231/ATCC,32%
same,GI%,MDA-MB-468,17%
same,Bax gene expression (fold change),Bax in MDA-MB-231 cells,2.154 fold change
same,IC50,[1],12.5 ± 0.55 µM
same,IC50,HER2,0.253 ± 0.008 µM
"CS(=O)(=O)c1ccc(C(=O)N2N=C(c3ccccc3)CC2c2ccc(F)cc2)cc1 (centres unmarked) [Compound 18c, (5-(4-Fluorophenyl)-3-phenyl-4,5-dihydro-1H-pyrazol-1-yl)(4-(methylsulfonyl)phenyl)methanone]",PCE (positive cytotoxic effect: ratio of cell lines with growth inhibition >10% to total cell lines),59 cancer cell lines,21/59
same,MG% (mean growth percent),59 cancer cell lines,90.58%
same,Mean GI% Breast cancer,59 cancer cell lines,16%
same,Mean GI% Leukemia,59 cancer cell lines,35%
same,GI%,RPMI-8226,20%
same,GI%,EKVX,15%
same,GI%,HOP-62,26%
same,GI%,NCI-H522,48%
same,GI%,SNB-75,14%
same,GI%,OVCAR-8,20%
same,GI%,CAKI-1,22%
same,GI%,UO-31,20%
same,Bax gene expression (fold change),Bax in MDA-MB-231 cells,4.413 fold change
same,IC50,HER2,1.43 ± 0.047 µM
